Broadly, the IC50 is the concentration that gives 50% inhibition. Low values mean higher potency, high ones lower potency.

This note sets out measurements from paper PMC7517831, “Integrating Machine Learning-Based Virtual Screening With Multiple Protein Structures and Bio-Assay Evaluation for Discovery of Novel GSK3β Inhibitors” (Frontiers in Pharmacology, 2020).

For the test, the target named is T1, Glycogen synthase kinase-3β (GSK3β) (Homo sapiens, UniProt P49841).
T1 construct: gene GSK3B
Nature of the test: ADP-Glo luminescent kinase assay, nine-point dose curve. The class given is biochemical. (In general: In ADP-Glo the light output rises with the ADP produced.)

T1 sequence (P49841 whole entry): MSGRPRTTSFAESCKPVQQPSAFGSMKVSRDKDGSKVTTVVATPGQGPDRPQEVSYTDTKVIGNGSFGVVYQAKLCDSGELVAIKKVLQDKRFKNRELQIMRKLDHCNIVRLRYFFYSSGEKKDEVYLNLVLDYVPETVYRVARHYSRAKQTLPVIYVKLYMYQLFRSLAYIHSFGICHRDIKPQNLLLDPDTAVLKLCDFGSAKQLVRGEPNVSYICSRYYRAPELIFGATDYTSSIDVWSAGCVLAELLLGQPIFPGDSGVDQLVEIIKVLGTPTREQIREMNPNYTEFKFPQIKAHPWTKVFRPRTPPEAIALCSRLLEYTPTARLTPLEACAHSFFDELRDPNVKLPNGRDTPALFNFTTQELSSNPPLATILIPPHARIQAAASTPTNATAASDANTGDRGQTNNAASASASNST

`COc1cccc(-n2c(=S)sc3c(=O)[nH]c(SCC(=O)Nc4cccc(Cl)c4)nc32)c1` [Cpd22] returned an IC50 of 15.5 µM. This counts as double-digit micromolar.
As for `CC(C)(C)[C@H]1CCc2[nH]nc(C(=O)NC3CC3)c2C1` [Cpd49], the figure is 9.34 µM.
